{"source": "patent US5484785A", "about": "“Salts of a quinolone-carboxylic acid” (Cheil Foods & Chemicals, Inc., priority 1992, dated 1996)", "origin": "cited, not measured here"}
{"molecule": "methanesulfonate", "values": [{"measurement": "pH of known Ciprofloxacin salts (in words)", "setting": "solution", "result": "very low value of pH"}]}
{"molecule": "O=C(O)c1cn(C2CC2)c2cc(N3CCNCC3)c(F)cc2c1=O", "note": "[Ciprofloxacin, 1-cyclopropyl-6-fluoro-1,4-dihydro-4-oxo-7-(1-piperazinyl)-quinoline-3-carboxylic acid]", "values": [{"measurement": "Antibacterial activities (in words)", "setting": "bacteria", "result": "potent antibacterial activities"}]}
{"molecule": "O=C(O)c1cn(C2CC2)c2cc(N3CCNCC3)c(F)cc2c1=O", "note": "[Ciprofloxacin lactate]", "values": [{"measurement": "Precipitation in injection/solution (in words)", "setting": "lactate: contained in the injection in an excessive amount", "result": "tends to occur precipitation in an injection"}]}
